Measurements published in article PMC8000919, “Validation of an LC-MS/MS Method to Quantify the New TRPC6 Inhibitor SH045 (Larixyl N-methylcarbamate) and Its Application in an Exploratory Pharmacokinetic Study in Mice” (Pharmaceuticals, 2021).
Read-outs that look alike come from different tables or passages of the source.

Columns and labels:
[1] = Plasma protein binding (PPB) by ultrafiltration; assay type: in vitro ADME; conditions: mouse plasma
Procedure: PPB of SH045 in mice plasma was determined at two concentrations, 100 and 800 ng/mL, using ultrafiltration. For that, 2 µL of working solutions of SH045 in DMSO (final concentration […]) were mixed with 298 µL blank plasma and incubated at 37 °C for 30 min. To determine the total concentration of SH045, 60 µL sample were taken out. The remaining 240 µL of spiked plasma were transferred to a centrifugal filter (Centrifugal Filter Units, 30 kDa cut-off, Millipore, County Cork, Ireland) and centrifuged at room temperature for 10 min at 1000× g. The filtrates were analyzed for the unbound SH045. The PPB was calculated as PPB (%) = (Ct − Cf)/Ct × 100, with Ct as total SH045 concentration in spiked plasma and Cf as unbound SH045 concentration in the filtrate.

[2] = Stability in plasma QC samples under storage conditions; assay type: physicochemical, mice; conditions: for Stability in autosampler, Accuracy / Stability in autosampler, Mean ± SEM: extracted plasma QC samples, 6 °C; for Stability in autosampler, Accuracy / Stability in autosampler, Mean ± SEM / Freeze and thaw stability, Accuracy / Freeze and thaw stability, Mean ± SEM: 12 h; for Short-term stability, Accuracy / Short-term stability, Mean ± SEM / Freeze and thaw stability, Accuracy / Freeze and thaw stability, Mean ± SEM / Long-term stability, Accuracy / Long-term stability, Mean ± SEM: plasma QC samples; for Short-term stability, Accuracy / Short-term stability, Mean ± SEM: 25 °C, 4 h; for Freeze and thaw stability, Accuracy / Freeze and thaw stability, Mean ± SEM / Long-term stability, Accuracy / Long-term stability, Mean ± SEM: −20 °C; for Freeze and thaw stability, Accuracy / Freeze and thaw stability, Mean ± SEM: 3 cycles; for Long-term stability, Accuracy / Long-term stability, Mean ± SEM: 30 days
Procedure: […] The accuracy of the mean concentration at each of the three QC levels was accepted within ±15% of nominal concentration. All stability experiments were carried out in three replicates.

[3] = Exploratory plasma pharmacokinetics in mice after single i.p. administration, non-compartmental analysis; assay type: in vivo
Procedure: The practicability of the validated method for SH045 quantification was verified in a first exploratory pharmacokinetic study in mice. Male C57BL/6 mice (25–30 g body weight, Charles River, Sulzfeld, Germany) were housed in groups under standard conditions, allowed access to lab chow and water ad libitum. Animal experiments were performed according to the national regulations of animal welfare and were ethically approved by the local committee on animal welfare and the local authorities. Animal experiments were performed under strict consideration of the 3R principles (replace, reduce, refine), fully complying with the ARRIVE guidelines.
Solutions of SH045 for i.p. administration were prepared with DMSO (final concentration 0.5%) and Kolliphor® EL (5% in water). SH045 was administered i.p. as a single dose of 20 mg/kg body weight. Blood was collected from mice tail vein at 5, 15, 30, 60, 120, 180 and 360 min after administration via heparinized catheters. After centrifugation at 4000× g at 4 °C for 10 min, plasma was stored at −80 °C until analysis.
For sample preparation, 20 µL of thawed plasma were mixed with 2 µL of IS (50 µg/mL), vortexed for 30 s, added with 178 µL ice-cold ACN and shaken vigorously for 5 min. After centrifugation at 104,000× g for 15 min, the supernatant was filtered through a 0.2 µm pore-size syringe filter (Phenex-RC 4 mm, Phenomenex, Aschaffenburg, Germany) and stored in the autosampler at 6 °C until analysis by LC-MS/MS, as mentioned above.
The evaluation of basic pharmacokinetic parameters of SH045 (20 mg/kg, i.p.) following a single dose was performed by non-compartmental analysis using a commercially available software program Kinetica, version 5.1 (Thermo Fisher Scientific, Waltham, MA, USA). The Cmax and Tmax were obtained directly from the plasma concentration-time curve. The slope of the terminal phase of the SH045 concentration profile (ʎz) was estimated as absolute values from >4 data points using a log-linear regression analysis.
The area under the plasma concentration-time curve (AUC) for the time (t) providing the final measurable concentration (AUClast) was calculated using the log-linear trapezoidal rule.
The AUC0–∞ was then determined as AUClast + Clast/ʎz, where Clast is the last measurable concentration. The systemic total body clearance from plasma (CLp) was calculated as applied dose divided by AUC0–∞. MRT was calculated as AUMC0–∞/AUC0–∞, where area under the first-moment curve (AUMC) was defined as area under the curve of the product of time and the plasma drug concentration versus time from zero to infinity.
The volume of distribution, VZ, was calculated as CLp/ʎz. Finally, the AUCextra extrapolates the AUC from the last measured time point to infinity.

[4] = test system: TRPC3/6 channels of rat PASMC; parameters: method as in PMID 29522264; conditions: 1-oleyl-2-acetyl-sn-glycerol (OAG)-induced; cited from earlier work
[5] = test system: ischemic lungs explanted from mice; parameters: method as in PMID 29522264; conditions: ex vivo model of LIRE; cited from earlier work
[6] = test system: TRPC3; parameters: method as in PMID 29522264; conditions: TRPC6 over TRPC3; cited from earlier work
[7] = Stability in stock and working solutions; assay type: physicochemical; conditions: nominal 1000 ng/mL
Procedure: Analytic stock solutions of SH045 and of IS (1 mg/mL each) were prepared in ACN and stored at −20 °C. Working solutions of SH045 and of IS (50 µg/mL) were freshly prepared by dilution with water/ACN 1:1 (v/v). Calibration and QC samples were prepared by addition of 2 μL SH045 working solutions and 2 μL IS solution to 18 μL of blank plasma, further processed identically to the preparation of plasma (see below). Freshly prepared calibration samples for SH045 in plasma comprised eight concentration levels analyzed in duplicates (2, 5, 10, 100, 200, 800, 1200 and 1600 ng/mL).
The stability of SH045 and IS in stock solutions stored at −20 °C for 28 days and in working solutions stored at 4 °C for 12 h was determined comparing the analyzed with the nominal concentration and accepted when accuracy was within 15%.

[8] = test system: TRPC6; parameters: method as in PMID 29522264; conditions: stably TRPC6-transfected HEK293 cells; read-out: IC50 to inhibit Ca2+ influx; cited from earlier work
[9] = test system: TRPC6; parameters: method as in PMID 29522264; conditions: patch-clamp recordings; read-out: IC50 to block inward currents; cited from earlier work
[10] = male, C57BL/6, mouse, ip, mice plasma, single dose 20 mg/kg body weight
[11] = stock solution, −20 °C, 28 days

C=C[C@@](C)(O)CC[C@H]1C(=C)C[C@H](OC(=O)NC)[C@H]2C(C)(C)CCC[C@]12C [SH045, (1S,4S,4aR,8aS)-4-((S)-3-Hydroxy-3-methylpent-4-en-1-yl)-4a,8,8-trimethyl-3-methylenedecahydronaphthalen-1-yl methylcarbamate]
fraction unbound at 30 min, 100 ng/mL ([1]; 100 ng/mL SH045, ultrafiltration): 0.022
fraction unbound at 30 min, 800 ng/mL ([1]; 800 ng/mL SH045, ultrafiltration): 0.003
Stability in autosampler, Accuracy ([2]; nominal 5 ng/mL): 99.0%
Stability in autosampler, Mean ± SEM ([2]; nominal 5 ng/mL): 5.0 ± 0.2 ng/mL
Stability in autosampler, Accuracy ([2]; nominal 800 ng/mL): 100.8%
Stability in autosampler, Mean ± SEM ([2]; nominal 800 ng/mL): 807 ± 28 ng/mL
Stability in autosampler, Accuracy ([2]; nominal 1200 ng/mL): 104.7%
Stability in autosampler, Mean ± SEM ([2]; nominal 1200 ng/mL): 1256 ± 50 ng/mL
Short-term stability, Accuracy ([2]; nominal 5 ng/mL): 107.6%
Short-term stability, Mean ± SEM ([2]; nominal 5 ng/mL): 5.4 ± 0.1 ng/mL
Short-term stability, Accuracy ([2]; nominal 800 ng/mL): 101.9%
Short-term stability, Mean ± SEM ([2]; nominal 800 ng/mL): 816 ± 2 ng/mL
Short-term stability, Accuracy ([2]; nominal 1200 ng/mL): 98.8%
Short-term stability, Mean ± SEM ([2]; nominal 1200 ng/mL): 1186 ± 36 ng/mL
Freeze and thaw stability, Accuracy ([2]; nominal 5 ng/mL): 97.2%
Freeze and thaw stability, Mean ± SEM ([2]; nominal 5 ng/mL): 4.9 ± 0.2 ng/mL
Freeze and thaw stability, Accuracy ([2]; nominal 800 ng/mL): 90.1%
Freeze and thaw stability, Mean ± SEM ([2]; nominal 800 ng/mL): 721 ± 8 ng/mL
Freeze and thaw stability, Accuracy ([2]; nominal 1200 ng/mL): 90.2%
Freeze and thaw stability, Mean ± SEM ([2]; nominal 1200 ng/mL): 1083 ± 41 ng/mL
Long-term stability, Accuracy ([2]; nominal 5 ng/mL): 107.3%
Long-term stability, Mean ± SEM ([2]; nominal 5 ng/mL): 5.4 ± 0.3 ng/mL
Long-term stability, Accuracy ([2]; nominal 800 ng/mL): 95.4%
Long-term stability, Mean ± SEM ([2]; nominal 800 ng/mL): 763 ± 9 ng/mL
Long-term stability, Accuracy ([2]; nominal 1200 ng/mL): 99.9%
Long-term stability, Mean ± SEM ([2]; nominal 1200 ng/mL): 1199 ± 29 ng/mL
plasma concentration relative to IC50 for Ca2+ influx ([3]; five hours after administration of 20 mg/kg): at least two-fold higher
AUC(0-inf) [3, 10]: 1470 ng·h/mL
AUC(0-t) [3, 10]: 1410 ng·h/mL
Cmax [3, 10]: 756 ng/mL
MRT [3, 10]: 1.9 h
Tmax [3, 10]: 0.5 h
half-life ([3]; male, C57BL/6, mouse, plasma, ip, 20 mg/kg, mice plasma, single dose 20 mg/kg body weight): 1.3 h
T1/2 ([3]; mice plasma, single dose 20 mg/kg body weight, i.p., 20 mg/kg): 1.31 h
% AUC (AUCextra as percent) ([3]; mice plasma, single dose 20 mg/kg i.p., extrapolated part of AUC): 4.3%
effect on OAG-induced Ca2+ entry [4]: inhibited
edema formation after reperfusion [5]: reduced edema formation
subtype selectivity over TRPC3 [6]: 13 fold
Stability, Accuracy [7, 11]: 106.6%
Stability, Mean ± SEM [7, 11]: 1066 ± 9 ng/mL
Stability, Accuracy ([7]; working solution, 4 °C, 12 h): 103.7%
Stability, Mean ± SEM ([7]; working solution, 4 °C, 12 h): 1037 ± 10 ng/mL
IC50 [8]: 63 nM
IC50 [9]: 5.8 nM
